Data from the NIST ThermoML archive (doi:10.1016/j.fluid.2014.04.027).
± gives the expanded uncertainty stated by the source.

Assay: xn = mol fraction of the nth substance listed
Details: 100 kPa, Liquid, Alternating current cell with electrodes

CCCCCCCCCCCCOS(=O)(=O)[O-].[Na+] [sodium dodecyl sulfate] + O
electrical conductivity (298.15 K, x1 = 6.348e-05): 0.024 ± 0.00096 S/m
electrical conductivity (298.15 K, x1 = 6.643e-05): 0.0245 ± 0.00098 S/m
electrical conductivity (298.15 K, x1 = 6.967e-05): 0.0252 ± 0.001 S/m
electrical conductivity (298.15 K, x1 = 7.324e-05): 0.0261 ± 0.001 S/m
electrical conductivity (298.15 K, x1 = 7.72e-05): 0.0269 ± 0.0011 S/m
electrical conductivity (298.15 K, x1 = 8.16e-05): 0.0278 ± 0.0011 S/m
electrical conductivity (298.15 K, x1 = 8.4e-05): 0.0284 ± 0.0011 S/m
electrical conductivity (298.15 K, x1 = 8.655e-05): 0.0291 ± 0.0012 S/m
electrical conductivity (298.15 K, x1 = 8.925e-05): 0.0297 ± 0.0012 S/m
electrical conductivity (298.15 K, x1 = 9.213e-05): 0.0305 ± 0.0012 S/m
electrical conductivity (298.15 K, x1 = 9.519e-05): 0.0311 ± 0.0012 S/m
electrical conductivity (298.15 K, x1 = 9.847e-05): 0.0317 ± 0.0013 S/m
electrical conductivity (298.15 K, x1 = 0.000102): 0.0327 ± 0.0013 S/m
electrical conductivity (298.15 K, x1 = 0.0001058): 0.0335 ± 0.0013 S/m
electrical conductivity (298.15 K, x1 = 0.0001098): 0.0345 ± 0.0014 S/m
electrical conductivity (298.15 K, x1 = 0.0001142): 0.0353 ± 0.0014 S/m
electrical conductivity (298.15 K, x1 = 0.000119): 0.0365 ± 0.0015 S/m
electrical conductivity (298.15 K, x1 = 0.0001241): 0.0375 ± 0.0015 S/m
electrical conductivity (298.15 K, x1 = 0.0001298): 0.0388 ± 0.0015 S/m
electrical conductivity (298.15 K, x1 = 0.0001359): 0.0401 ± 0.0016 S/m
electrical conductivity (298.15 K, x1 = 0.0001427): 0.0414 ± 0.0017 S/m
electrical conductivity (308.15 K, x1 = 6.348e-05): 0.0249 ± 0.001 S/m
electrical conductivity (308.15 K, x1 = 6.643e-05): 0.0255 ± 0.001 S/m
electrical conductivity (308.15 K, x1 = 6.967e-05): 0.0264 ± 0.0011 S/m
electrical conductivity (308.15 K, x1 = 7.324e-05): 0.0273 ± 0.0011 S/m
electrical conductivity (308.15 K, x1 = 7.72e-05): 0.0282 ± 0.0011 S/m
electrical conductivity (308.15 K, x1 = 8.16e-05): 0.0292 ± 0.0012 S/m
electrical conductivity (308.15 K, x1 = 8.4e-05): 0.0298 ± 0.0012 S/m
electrical conductivity (308.15 K, x1 = 8.655e-05): 0.0304 ± 0.0012 S/m
electrical conductivity (308.15 K, x1 = 8.925e-05): 0.0311 ± 0.0012 S/m
electrical conductivity (308.15 K, x1 = 9.213e-05): 0.0317 ± 0.0013 S/m
electrical conductivity (308.15 K, x1 = 9.519e-05): 0.0323 ± 0.0013 S/m
electrical conductivity (308.15 K, x1 = 9.847e-05): 0.0332 ± 0.0013 S/m
electrical conductivity (308.15 K, x1 = 0.000102): 0.0339 ± 0.0014 S/m
electrical conductivity (308.15 K, x1 = 0.0001058): 0.0349 ± 0.0014 S/m
electrical conductivity (308.15 K, x1 = 0.0001098): 0.0359 ± 0.0014 S/m
electrical conductivity (308.15 K, x1 = 0.0001142): 0.037 ± 0.0015 S/m
electrical conductivity (308.15 K, x1 = 0.000119): 0.0382 ± 0.0015 S/m
electrical conductivity (308.15 K, x1 = 0.0001241): 0.0394 ± 0.0016 S/m
electrical conductivity (308.15 K, x1 = 0.0001298): 0.0408 ± 0.0016 S/m
electrical conductivity (308.15 K, x1 = 0.0001359): 0.0423 ± 0.0017 S/m
electrical conductivity (308.15 K, x1 = 0.0001427): 0.0439 ± 0.0018 S/m
electrical conductivity (308.15 K, x1 = 0.0001502): 0.0455 ± 0.0018 S/m
electrical conductivity (318.15 K, x1 = 6.348e-05): 0.0283 ± 0.0011 S/m
electrical conductivity (318.15 K, x1 = 6.643e-05): 0.029 ± 0.0012 S/m
electrical conductivity (318.15 K, x1 = 6.967e-05): 0.0298 ± 0.0012 S/m
electrical conductivity (318.15 K, x1 = 7.324e-05): 0.0306 ± 0.0012 S/m
electrical conductivity (318.15 K, x1 = 7.72e-05): 0.0317 ± 0.0013 S/m
electrical conductivity (318.15 K, x1 = 8.16e-05): 0.0329 ± 0.0013 S/m
electrical conductivity (318.15 K, x1 = 8.4e-05): 0.0334 ± 0.0013 S/m
electrical conductivity (318.15 K, x1 = 8.655e-05): 0.034 ± 0.0014 S/m
electrical conductivity (318.15 K, x1 = 8.925e-05): 0.0347 ± 0.0014 S/m
electrical conductivity (318.15 K, x1 = 9.213e-05): 0.0355 ± 0.0014 S/m
electrical conductivity (318.15 K, x1 = 9.519e-05): 0.0362 ± 0.0014 S/m
electrical conductivity (318.15 K, x1 = 9.847e-05): 0.0371 ± 0.0015 S/m
electrical conductivity (318.15 K, x1 = 0.000102): 0.038 ± 0.0015 S/m
electrical conductivity (318.15 K, x1 = 0.0001058): 0.0389 ± 0.0016 S/m
electrical conductivity (318.15 K, x1 = 0.0001098): 0.04 ± 0.0016 S/m
electrical conductivity (318.15 K, x1 = 0.0001142): 0.0412 ± 0.0016 S/m
electrical conductivity (318.15 K, x1 = 0.000119): 0.0424 ± 0.0017 S/m
electrical conductivity (318.15 K, x1 = 0.0001241): 0.0436 ± 0.0018 S/m
electrical conductivity (318.15 K, x1 = 0.0001298): 0.045 ± 0.0018 S/m
electrical conductivity (318.15 K, x1 = 0.0001359): 0.0465 ± 0.0019 S/m
electrical conductivity (318.15 K, x1 = 0.0001427): 0.0481 ± 0.0019 S/m
electrical conductivity (318.15 K, x1 = 0.0001502): 0.0498 ± 0.002 S/m
electrical conductivity (318.15 K, x1 = 0.0001586): 0.052 ± 0.0021 S/m
